Patent publication US5358936A, “Anionic furanose derivatives, methods of making and using the same” (Gordon; Paul, priority 1991, dated 1994)
Where a name gives a salt, the structure may show the parent alone.

System: rat hind paws
Experiment: Paw swelling provoked by zymosan-activated serum or normal serum (Example 23)
Type: in vivo
Conditions: for Paw Swelling, ZAS (MPO study): 45 minutes before ZAS, ZAS alone 34.58 ± 2.45; for Paw Swelling, ZAS (MPO study) / Paw Swelling, ZAS: P < 0.01; for Swelling Change, ZAS / Swelling Change, normal serum (NS): 50 mg/kg oral
Experimental: For the present studies, zymosan-activated serum (ZAS) was made by incubating reconstituted lyophilized rat serum with 10 mg/ml zymosan A for one hour at 37° C., and then microfiltering to remove the zymosan.
In the first study, distilled water vehicle or 50 mg/kg Compound III in water were given by oral gavage to 9 control and 9 drug-treated adult male rats, respectively, and 90 minutes later the dorsoventral diameter of the hind feet were determined by Schnelltaster caliper. Sera [0.1 ml ZAS or 0.1 ml normal serum (NS)] were thereafter injected into opposite hind paws of the same rat under ether anesthesia. Below are given the paw swellings that developed at 2 and 3 hours, in response to ZAS and to normal serum, in the absence and presence of drug treatment. Data are reported previously.
The relationship of neutrophil infiltration to ZAS-induced swelling, and its drug-inhibition, was evaluated in another study. In this study, all procedures employing ZAS and Compound III were carried out as above, except that, Compound III was administered 45 minutes before ZAS, and standardized samples of the swollen footpads were removed and subjected to analysis for myeloperoxidase activity (MPO), according to the method of Lundberg et al., Inflammation, 7:247, (1983). MPO is a neutrophil-specificenzyme, and its assay is the most widely used method of identifying the degree of neutrophil participation in organ pathology.

## CC1(C)O[C@H]2O[C@H]([C@@H](COS(=O)(=O)O)OS(=O)(=O)O)[C@H](OS(=O)(=O)O)[C@H]2O1 [Compound III, 1,2-O-(2-Propylidene)-3,5,6-tri-O-sulfo-α-D-glucofuranose, tripotassium salt]
17 mg/kg, n = 6
  Paw Swelling, ZAS (MPO study): 16.83 ± 2.12 0.1 mm
50 mg/kg, n = 12
  Paw Swelling, ZAS (MPO study): 15.25 ± 3.99 0.1 mm
2 hours post-ZAS, 50 mg/kg oral gavage 90 minutes before, control 27.22 ± 1.97
  Paw Swelling, ZAS: 10.78 ± 1.94 0.1 mm
2 hours
  Swelling Change, ZAS: -60%
  Swelling Change, normal serum (NS): -32%
2 hours, 50 mg/kg oral gavage, control 11.22 ± 1.28
  Paw Swelling, normal serum (NS): 7.67 ± 1.41 0.1 mm
3 hours post-ZAS, 50 mg/kg oral gavage, control 28.89 ± 2.48
  Paw Swelling, ZAS: 16.11 ± 2.94 0.1 mm
3 hours
  Swelling Change, ZAS: -44%
  Swelling Change, normal serum (NS): -17%
3 hours, 50 mg/kg oral gavage, control 11.44 ± 1.55
  Paw Swelling, normal serum (NS): 9.44 ± 1.28 0.1 mm
